{"source": "patent EP2173340B1", "about": "“METHODS OF ENHANCING COGNITIVE FUNCTION USING NON-PEPTIDIC COMPOUNDS” (Acumen Pharmaceuticals, Inc., priority 2007, dated 2009)", "key": {"Aβ1-42": {"target": "T1, Aβ1-42 (Homo sapiens, UniProt P05067)", "T1 construct": "containing 0.2 µM FITC-Aβ(1-42) and 0.8 µM Aβ(1-42)", "T1 sequence (P05067 672-713 limits assumed)": "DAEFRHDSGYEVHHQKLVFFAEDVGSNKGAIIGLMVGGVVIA", "assay": "FRET assay of Aβ1-42 oligomer (ADDL) formation", "format": "biochemical", "conditions": "for IC50: assay of Example 1, 0.2 µM FITC-Aβ(1-42) and 0.8 µM Aβ(1-42), 100 mM MgCl2, pH 8.0, 37°C", "text": "Fluorescence (or Förster) Resonance Energy Transfer (FRET) is a distance-dependent, non-radiative transfer of energy in which the de-excitation of one fluorophore (donor) is coupled to excitation of another fluorophore (acceptor). FRET occurs if (1) the quantum of energy emitted by a donor fluorophore corresponds to an acceptor fluorophore's excitation energy, (2) the orientations of donor and acceptor transition dipoles are nearly parallel and (3) the donor fluorescent emission spectrum overlaps the acceptor absorption spectrum.\nIn this assay, Aβ1-42 oligomer formation is monitored by FRET using N-terminal conjugates of fluorescein-Aβ1-42 as both the donor and acceptor fluorophore (fluorescein-fluorescein Ro∼45 Å). […] Inhibition of Aβ1-42 assembly is observed as the absence or attenuation of fluorescein quenching.\nFRET and FP assays are performed in 384-well Coming Non-Binding Surface, black, opaque microtiter plates, and the assay buffer consists of 50 mM MOPS-Tris (pH 8.0) with 100 mM MgCl2. […] ADDL assembly is monitored on a Tecan GENios Pro plate reader, exciting at a wavelength of 485 nm and detecting emission at a wavelength of 515 nm. Kinetic traces are collected by recording fluorescence intensity and polarization readings every five minutes over about three to about a six-hour time course. […] Positive control reactions contain all buffer components in the absence of added small molecule or antibody reagents. […]"}, "Aβ1-42 ADDLs": {"target": "T2, Aβ1-42 ADDLs (Homo sapiens, UniProt P05067)", "T2 construct": "Synthetic Aβ1-42 powder was dissolved in 1,1,1,3,3,3 hexafluorisopropanol (HFIP)", "T2 sequence (P05067 672-713 limits assumed)": "as above", "assay": "Alternating Lever Cyclic Ratio (ALCR) rat model", "format": "in vivo", "conditions": "for Approach Errors Mean / Perseveration Errors Mean: 20 µl via cannula aimed at lateral ventricle, tested about 3 hours following injection, base line error rate equalized to 1.00", "procedure": "Preparations of Aβ1-42 ADDLs and a potential therapeutic compounds under the Alternating Lever Cyclic Ratio (ALCR) rat model of AD were tested. This highly sensitive model has been able to detect cognitive deficits due to direct injection of cell-derived Aβ oligomers into rat brain. In this study, a direct injection of ADDLs made from synthetic Aβ1-42 and a putative therapeutic compound under the ALCR procedure were tested.\nThe ALCR test has proven to be much more sensitive than previously published methods for measuring drug effects on cognitive function. In this task, rats must learn a complex sequence of lever-pressing requirements in order to earn food reinforcement in a two-lever experimental chamber. Subjects must alternate between two levers by switching to the other lever after pressing the first lever enough to get food reward. The exact number of presses required for each food reward changes, first increasing from 2 responses per food pellet up to 56 presses per food pellet, then decreasing back to 2 responses per pellet. Intermediate values were based on the quadratic function, x^2 - x. One cycle was an entire ascending and descending sequence of these lever press requirements (e.g., 2, 6, 12, 20, 30, 42, 56, 56, 42, 30, 20, 12, 6, and 2 presses per food reward). Six such full cycles were presented during each daily session.\nSynthetic Aβ1-42 powder was dissolved in 1,1,1,3,3,3 hexafluorisopropanol (HFIP) to afford a solution of Aβ1-42 in HFIP of about 1 mM and allowed to incubate at ambient temperature for about 1 h. The resulting solution was chilled on ice for about 5-10 min, then aliquoted into eppendorf tubes to provide about 50 µl of solution per tube. The tubes were then placed in a chemical fume hood and allowed to stand overnight to allow the HFIP to evaporate under a slow stream of nitrogen. To removed final traces of HFIP, the tubes were subjected to two SpeedVac cycles of 15 min at room temperature and about 15 to 25 in Hg of vacuum. The resulting films of monomerized Aβ1-42 peptide were stored over desiccant at -80 °C until used.\nA tube of monomerized Aβ1-42 peptide was warmed to room temperature and the Aβ1-42 peptide was dissolved in anhydrous DMSO to afford a peptide stock DMSO solution containing about 10 µM to about 100 µM Aβ1-42 peptide in DMSO.\n2 µl of a 20 mM stock solution of test compound in anhydrous DMSO is added to 998 µl of neural basal media (phenol red free, Gibco 12348-017) to give a compound neural basal media solution containing 40 µM of test compound in neural basal media.\nFor the Aβ1-42 peptide only treatment, peptide stock DMSO solution is added to 37 °C neural basal to obtain the requisite Aβ1-42 peptide monomer concentration, provided that the maximum concentration of DMSO is 1% or less, and the tube is vortexed for 30 to 60 seconds, spun down briefly in a microfuge and incubated at 37 °C for 15 min prior to the start of injections.\nFor the Aβ1-42 peptide plus test compound treatment, peptide stock DMSO solution is added to 37 °C compound neural basal media solution to obtain the requisite Aβ1-42 peptide monomer concentration, provided that the maximum concentration of DMSO is 1% or less, and the tube is vortexed for 30 to 36 seconds, spun down briefly in a microfuge and incubated at 37 °C for 15 min prior to the start of injections.\nFor control injections, compound neural basal media solution is incubated at 37 °C for 15 min prior to the start of injections.\nRats: Rats were trained under ALCR until their error rates were stable. Once the rats were placed upon the final ALCR procedure, training sessions were conducted 7 days each week until the end of the study.\nSurgery: All rats received a single 28 ga cannula, which was permanently affixed to the skull, and aimed at the lateral ventricle. Half the rats received cannula in the right ventricle and half received cannula in the left ventricle. Rats were allowed 5 days to recover from surgery before training resumed. […]"}, "[1]": {"conditions": "compound combined with Aβ1-42 ADDLs"}}, "data": [{"compound": "O=C(N/N=C/c1cc(Br)ccc1O)c1ccccc1O", "note": "[Compound 27, (E)-N'-(5-bromo-2-hydroxybenzylidene)-2-hydroxybenzohydrazide]", "values": [{"measurement": "IC50", "setting": "Aβ1-42", "value": 19.3, "unit": "µM"}]}, {"compound": "CCCCC1=NN(C(=O)C(=O)NCCc2ccccc2)C(O)(C(F)(F)F)C1", "note": "(centres unmarked) [Compound 16, 2-(3-butyl-5-hydroxy-5-(trifluoromethyl)-4,5-dihydro-1H-pyrazol-1-yl)-2-oxo-N-phenethylacetamide]", "values": [{"measurement": "IC50", "setting": "Aβ1-42", "value": 38.8, "unit": "µM"}]}, {"compound": "CCC1=NN(C(=O)C(=O)Nc2ccccc2OC)C(O)(C(F)(F)F)C1", "note": "(centres unmarked) [Compound 8, 2-(3-ethyl-5-hydroxy-5-(trifluoromethyl)-4,5-dihydro-1H-pyrazol-1-yl)-N-(2-methoxyphenyl)-2-oxoacetamide]", "values": [{"measurement": "IC50", "setting": "Aβ1-42", "value": 7, "unit": "µM"}]}, {"compound": "O=C(N/N=C/c1c(O)ccc2ccccc12)c1ccccc1O", "note": "[Compound 24, (E)-2-hydroxy-N'-((2-hydroxynaphthalen-1-yl)methylene) benzohydrazide]", "values": [{"measurement": "increase in Perseveration Errors", "setting": "Aβ1-42 ADDLs; combined with the requisite concentration of Aβ1-42 ADDLs, result in words", "value": "eliminated the increase in Perseveration Errors"}, {"measurement": "Approach Errors Mean", "setting": "Aβ1-42 ADDLs; [1]", "value": 1.00}, {"measurement": "Perseveration Errors Mean", "setting": "Aβ1-42 ADDLs; [1]", "value": 0.92}, {"measurement": "error rates", "setting": "Aβ1-42 ADDLs; given alone, result in words", "value": "did not increase error rates"}, {"measurement": "Approach Errors Mean", "setting": "Aβ1-42 ADDLs; injectate given alone", "value": 0.96}, {"measurement": "Perseveration Errors Mean", "setting": "Aβ1-42 ADDLs; injectate given alone", "value": 0.95}]}, {"compound": "COc1ccccc1NC(=O)C(=O)N1N=C(C(C)C)CC1(O)C(F)(F)F", "note": "(centres unmarked) [Compound 10, 2-(5-hydroxy-3-isopropyl-5-(trifluoromethyl)-4,5-dihydro-1H-pyrazol-1-yl)-N-(2-methoxyphenyl)-2-oxoacetamide]", "values": [{"measurement": "IC50", "setting": "Aβ1-42", "value": 24.3, "unit": "µM"}]}, {"compound": "CC(C)CCC1=NN(C(=O)C(=O)NCCc2ccccc2)C(O)(C(F)(F)F)C1", "note": "(centres unmarked) [Compound 20, 2-(5-hydroxy-3-isopentyl-5-(trifluoromethyl)-4,5-dihydro-1H-pyrazol-1-yl)-2-oxo-N-phenethylacetamide]", "values": [{"measurement": "IC50", "setting": "Aβ1-42", "value": 17, "unit": "µM"}]}, {"compound": "O=C(C/C(=N/NC(=O)c1ccccc1O)C(F)(F)F)c1cccs1", "note": "[Compound 2, 2-Hydroxy-benzoic acid [3-oxo-3-thiophen-2-yl-1-trifluoromethyl-prop-(Z)-ylidene]-hydrazide]", "values": [{"measurement": "IC50", "setting": "Aβ1-42", "value": 26, "unit": "µM"}]}, {"compound": "CCCC1=NN(C(=O)C(=O)NCCc2ccccc2)C(O)(C(F)(F)F)C1", "note": "(centres unmarked) [Compound 14, 2-(5-hydroxy-3-propyl-5-(trifluoromethyl)-4,5-dihydro-1H-pyrazol-1-yl)-2-oxo-N-phenethylacetamide]", "values": [{"measurement": "IC50", "setting": "Aβ1-42", "value": 34.4, "unit": "µM"}]}, {"compound": "CCCCCC1=NN(C(=O)C(=O)Nc2ccc(Br)cc2)C(O)(C(F)(F)F)C1", "note": "(centres unmarked) [Compound 18, N-(4-bromophenyl)-2-(5-hydroxy-3-pentyl-5-(trifluoromethyl)-4,5-dihydro-1H-pyrazol-1-yl)-2-oxoacetamide]", "values": [{"measurement": "IC50", "setting": "Aβ1-42", "value": 11.6, "unit": "µM"}]}, {"compound": "Aβ1-42 ADDLs: ADDLs made from synthetic Aβ1-42; soluble, oligomeric, globular, non-fibrillar, neurotoxic Aβ1-42 peptides", "values": [{"measurement": "Approach Errors Mean", "setting": "Aβ1-42 ADDLs; injectate given alone", "value": 1.02}, {"measurement": "Perseveration Errors Mean", "setting": "Aβ1-42 ADDLs; injectate given alone", "value": 1.33}, {"measurement": "Perseveration Error rate", "setting": "Aβ1-42 ADDLs; versus baseline error rates, ADDLs alone, result in words", "value": "significantly increased"}]}, {"compound": "NCCCS(=O)(=O)O", "note": "[Alzhemed, 3-amino-1-propanesulfonic acid, reference compound]", "values": [{"measurement": "inhibition of Aβ1-42 monomer assembly into Aβ oligomers", "setting": "Aβ1-42; standard FRET assay conditions of Example 1, comparative example, FIG 2", "value": "inability"}]}, {"compound": "O=C(C/C(=N/NC(=O)c1ccccc1O)C(F)(F)F)c1ccco1", "note": "[Compound 3, 2-Hydroxy-benzoic acid [3-oxo-3-furan-2-yl-1-trifluoromethyl-prop-(Z)-ylidene)-hydrazide]", "values": [{"measurement": "IC50", "setting": "Aβ1-42", "value": 13.5, "unit": "µM"}]}, {"compound": "CCCC1=NN(C(=O)c2ccccc2O)C(O)(C(F)(F)F)C1", "note": "(centres unmarked) [Compound 12, (5-hydroxy-3-propyl-5-(trifluoromethyl)-4,5-dihydro-1H-pyrazol-1-yl)(2-hydroxyphenyl)methanone]", "values": [{"measurement": "IC50", "setting": "Aβ1-42", "value": 8.5, "unit": "µM"}]}, {"compound": "CCCCCCC1=NN(C(=O)C(=O)Nc2ccc(OC)cc2)C(O)(C(F)(F)F)C1", "note": "(centres unmarked) [Compound 22, 2-(3-hexyl-5-hydroxy-5-(trifluoromethyl)-4,5-dihydro-1H-pyrazol-1-yl)-N-(4-methoxyphenyl)-2-oxoacetamide]", "values": [{"measurement": "IC50", "setting": "Aβ1-42", "value": 8.2, "unit": "µM"}]}, {"compound": "O=C(N/N=C/c1cc(Br)cc(Br)c1O)c1ccccc1O", "note": "[Compound 26, (E)-N'-(3,5-dibromo-2-hydroxybenzylidene)-2-hydroxybenzohydrazide]", "values": [{"measurement": "IC50", "setting": "Aβ1-42", "value": 5.8, "unit": "µM"}]}, {"compound": "CC(C)CC1=NN(C(=O)C(=O)NCCc2ccccc2)C(O)(C(F)(F)F)C1", "note": "(centres unmarked) [Compound 17, 2-(5-hydroxy-3-isobutyl-5-(trifluoromethyl)-0,5-dihydro-1H-pyrazol-1-yl)-2-oxo-N-phenethylacetamide]", "values": [{"measurement": "IC50", "setting": "Aβ1-42", "value": 41.3, "unit": "µM"}]}, {"compound": "CCCC1=NN(C(=O)C(=O)Nc2ccccc2OC)C(O)(C(F)(F)F)C1", "note": "(centres unmarked) [Compound 9, 2-(5-hydroxy-3-propyl-5-(trifluoromethyl)-4,5-dihydro-1H-pyrazol-1-yl)-N-(2-methoxyphenyl)-2-oxoacetamide]", "values": [{"measurement": "IC50", "setting": "Aβ1-42", "value": 6.4, "unit": "µM"}]}, {"compound": "CCOC(=O)c1c(NC(=O)C(=O)N/N=C/c2ccccc2O)sc2c1CCC(C)C2", "note": "(centres unmarked) [Compound 7, 2-{[1-(2-Hydroxyphenyl)-meth-(E)-ylidene-hydrazinooxalyl]-amino} -6-methyl-4,5,6,7-tetrahydro-benzo[b]thiophene-3-carboxylic acid ethyl ester]", "values": [{"measurement": "inhibition of Aβ1-42 oligomer assembly", "setting": "Aβ1-42; 1 mM Aβ1-42 total monomer, 100 mM MgCl2, compound ranging from 0.05 to 3 mM, FIG. 1", "value": "dose dependent inhibition"}]}, {"compound": "COc1ccccc1NC(=O)C(=O)N1N=C(C2CCCCC2)CC1(O)C(F)(F)F", "note": "(centres unmarked) [Compound 23, 2-(3-cyclohexyl-5-hydroxy-5-(trifluoromethyl)-4,5-dihydro-1H-pyrazol-1-yl)-N-(2-methoxyphenyl)-2-oxoacetamide]", "values": [{"measurement": "IC50", "setting": "Aβ1-42", "value": 29.1, "unit": "µM"}]}, {"compound": "CCCC1=NN(C(=O)C(=O)Nc2ccc(Br)cc2)C(O)(C(F)(F)F)C1", "note": "(centres unmarked) [Compound 15, N-(4-bromophenyl)-2-(5-hydroxy-3-propyl-5-(trifluoromethyl)-4,5-dihydro-1H-pyrazol-1-yl)-2-oxoacetamide]", "values": [{"measurement": "IC50", "setting": "Aβ1-42", "value": 7.8, "unit": "µM"}]}, {"compound": "CCC1=NN(C(=O)C(=O)Nc2ccc(Br)cc2)C(O)(C(F)(F)F)C1", "note": "(centres unmarked) [Compound 13, N-(4-bromophenyl)-2-(3-ethyl-5-hydroxy-5-(trifluoromethyl)-4,5-dihydro-1H-pyrazol-1-yl)-2-oxoacetamide]", "values": [{"measurement": "IC50", "setting": "Aβ1-42", "value": 17, "unit": "µM"}]}, {"compound": "CCCCCC1=NN(C(=O)C(=O)Nc2ccc(OC)cc2)C(O)(C(F)(F)F)C1", "note": "(centres unmarked) [Compound 19, 2-(5-hydroxy-3-pentyl-5-(trifluoromethyl)-4,5-dihydro-1H-pyrazol-1-yl)-N-(4-methoxyphenyl)-2-oxoacetamide]", "values": [{"measurement": "IC50", "setting": "Aβ1-42", "value": 8.7, "unit": "µM"}]}]}
